According to patent US10800741B2 (ANCUREALL PHARMACEUTICAL (SHANGHAI) CO., LTD., priority 2017, dated 2020):
Like-named read-outs stand apart in the source and are kept apart here.

What was measured:
Test in all cases: KINOMEscan in vitro binding to 468 labeled protein kinases
[1] = molecular target: T1, protein kinases (Homo sapiens, UniProt P00519, M351T); details: ABL1(M351T)-phosphorylated, read-out: Test compound/solvent control (%)
T1 construct: purchased Discovery X company (USA), KINOMEscan screening platform
Protocol: (§1) Test Example 6 Determination of Binding Affinity of the Present Compounds on Protein Kinases In Vitro
(§2) KINOMEscan screening platform of Discovery X company (USA) was used to identify the binding targets of the present compounds to protein kinases. Compound 66 of the present invention was dissolved in DMSO (Sigma Aldrich) at concentrations of 1000 nM, 10 nM and 1 nM, and then was subjected to in vitro binding reaction with 468 labeled protein kinases. Two samples were taken in parallel for each assay sample.
(§3) The lower the percentage of the test compound to the solvent control, the stronger the binding affinity of the test compound to the protein kinase in vitro.

[2] = molecular target: T2, protein kinases (Homo sapiens, UniProt P00519, Q252H); details: read-out: Test compound/solvent control (%); for remaining binding at 0.001 µM: 1 nM; for remaining binding at 0.01 µM: 10 nM; for remaining binding at 1 µM: 1000 nM
T2 construct: purchased Discovery X company (USA), KINOMEscan screening platform
Protocol: as §1, §2, §3

[3] = molecular target: T3, protein kinases (Homo sapiens, UniProt P00533); details: EGFR
T3 construct: purchased Discovery X company (USA), KINOMEscan screening platform
Protocol: as §1, §2, §3

[4] = molecular target: T4, protein kinases (Homo sapiens, UniProt P00533, G719C); details: EGFR(G719C)
T4 construct: purchased Discovery X company (USA), KINOMEscan screening platform
T4 sequence (P00533 25-1210 G719C): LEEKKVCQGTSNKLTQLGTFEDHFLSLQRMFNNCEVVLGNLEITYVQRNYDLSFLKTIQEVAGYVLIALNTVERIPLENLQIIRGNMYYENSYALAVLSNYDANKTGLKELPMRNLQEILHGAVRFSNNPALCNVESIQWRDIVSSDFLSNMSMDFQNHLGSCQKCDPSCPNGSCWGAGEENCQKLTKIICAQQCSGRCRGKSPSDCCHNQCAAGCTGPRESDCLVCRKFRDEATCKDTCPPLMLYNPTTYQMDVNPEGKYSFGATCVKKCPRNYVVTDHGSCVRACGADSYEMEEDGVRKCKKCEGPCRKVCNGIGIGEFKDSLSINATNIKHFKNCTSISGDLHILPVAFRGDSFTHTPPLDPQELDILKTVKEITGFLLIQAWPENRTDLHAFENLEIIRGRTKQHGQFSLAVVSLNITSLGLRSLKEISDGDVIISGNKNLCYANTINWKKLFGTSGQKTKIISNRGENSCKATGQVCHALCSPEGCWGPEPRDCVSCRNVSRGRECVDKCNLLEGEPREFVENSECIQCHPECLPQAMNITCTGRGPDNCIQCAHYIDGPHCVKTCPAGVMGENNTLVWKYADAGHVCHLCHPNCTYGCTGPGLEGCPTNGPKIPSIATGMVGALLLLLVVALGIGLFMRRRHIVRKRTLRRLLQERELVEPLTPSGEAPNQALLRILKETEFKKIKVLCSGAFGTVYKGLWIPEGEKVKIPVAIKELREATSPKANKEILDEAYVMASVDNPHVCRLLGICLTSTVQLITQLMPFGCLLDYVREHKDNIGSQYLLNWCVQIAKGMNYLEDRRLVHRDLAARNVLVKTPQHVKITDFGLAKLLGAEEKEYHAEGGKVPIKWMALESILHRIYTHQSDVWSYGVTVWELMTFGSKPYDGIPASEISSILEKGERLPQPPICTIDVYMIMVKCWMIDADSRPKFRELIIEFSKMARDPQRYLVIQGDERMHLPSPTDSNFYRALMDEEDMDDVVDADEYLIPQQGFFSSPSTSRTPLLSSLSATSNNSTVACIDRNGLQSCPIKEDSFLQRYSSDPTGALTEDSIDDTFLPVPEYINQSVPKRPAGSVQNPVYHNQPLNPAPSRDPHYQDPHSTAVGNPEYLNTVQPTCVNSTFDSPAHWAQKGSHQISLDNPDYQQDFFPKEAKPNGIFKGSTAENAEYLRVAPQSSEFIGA
Protocol: as §1, §2, §3

[5] = molecular target: T5, protein kinases (Homo sapiens, UniProt P00533, T790M); details: EGFR(T790M)
T5 construct: purchased Discovery X company (USA), KINOMEscan screening platform
T5 sequence (P00533 25-1210 T790M): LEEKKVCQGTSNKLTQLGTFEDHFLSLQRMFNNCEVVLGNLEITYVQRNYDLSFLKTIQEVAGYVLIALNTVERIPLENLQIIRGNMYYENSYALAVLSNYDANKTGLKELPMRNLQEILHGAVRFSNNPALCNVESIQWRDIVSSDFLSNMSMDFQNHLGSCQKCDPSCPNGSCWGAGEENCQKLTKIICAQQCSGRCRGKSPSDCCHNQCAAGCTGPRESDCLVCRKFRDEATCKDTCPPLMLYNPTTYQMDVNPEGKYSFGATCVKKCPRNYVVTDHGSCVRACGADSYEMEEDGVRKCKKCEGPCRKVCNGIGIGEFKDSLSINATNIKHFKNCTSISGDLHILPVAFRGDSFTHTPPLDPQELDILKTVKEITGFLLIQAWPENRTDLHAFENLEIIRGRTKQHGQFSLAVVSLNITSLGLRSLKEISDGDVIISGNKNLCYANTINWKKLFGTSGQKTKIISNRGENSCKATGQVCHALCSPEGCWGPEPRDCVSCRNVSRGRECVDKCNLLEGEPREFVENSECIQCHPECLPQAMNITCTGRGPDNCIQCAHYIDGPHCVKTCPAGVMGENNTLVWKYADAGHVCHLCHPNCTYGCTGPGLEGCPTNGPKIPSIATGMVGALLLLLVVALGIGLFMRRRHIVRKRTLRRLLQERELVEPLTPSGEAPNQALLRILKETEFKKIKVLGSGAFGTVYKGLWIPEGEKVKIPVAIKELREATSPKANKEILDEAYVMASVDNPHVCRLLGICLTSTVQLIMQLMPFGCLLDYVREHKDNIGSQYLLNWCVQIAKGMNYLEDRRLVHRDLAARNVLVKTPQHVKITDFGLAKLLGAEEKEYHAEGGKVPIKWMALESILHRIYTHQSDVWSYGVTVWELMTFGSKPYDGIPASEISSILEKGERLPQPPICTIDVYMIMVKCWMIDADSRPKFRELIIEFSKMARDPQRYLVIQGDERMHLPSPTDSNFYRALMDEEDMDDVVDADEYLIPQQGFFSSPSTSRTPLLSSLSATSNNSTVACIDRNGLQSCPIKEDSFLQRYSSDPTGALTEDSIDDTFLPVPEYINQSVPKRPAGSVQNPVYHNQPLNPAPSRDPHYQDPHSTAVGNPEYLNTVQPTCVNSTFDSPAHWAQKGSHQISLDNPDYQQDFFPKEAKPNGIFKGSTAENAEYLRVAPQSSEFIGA
Protocol: as §1, §2, §3

[6] = molecular target: T6, protein kinases (Homo sapiens, UniProt P07949, M918T); details: RET(M918T), read-out: Test compound/solvent control (%)
T6 construct: purchased Discovery X company (USA), KINOMEscan screening platform
Protocol: as §1, §2, §3

[7] = molecular target: T7, protein kinases (Homo sapiens, UniProt P07949, V804L); details: RET(V804L), read-out: Test compound/solvent control (%)
T7 construct: purchased Discovery X company (USA), KINOMEscan screening platform
Protocol: as §1, §2, §3

[8] = molecular target: T8, protein kinases (Homo sapiens, UniProt P07949, V804M); details: RET(V804M), read-out: Test compound/solvent control (%)
T8 construct: purchased Discovery X company (USA), KINOMEscan screening platform
Protocol: as §1, §2, §3

[9] = molecular target: T9, protein kinases (Homo sapiens, UniProt P08631); details: HCK, read-out: Test compound/solvent control (%)
T9 construct: purchased Discovery X company (USA), KINOMEscan screening platform
T9 sequence (P08631 whole entry): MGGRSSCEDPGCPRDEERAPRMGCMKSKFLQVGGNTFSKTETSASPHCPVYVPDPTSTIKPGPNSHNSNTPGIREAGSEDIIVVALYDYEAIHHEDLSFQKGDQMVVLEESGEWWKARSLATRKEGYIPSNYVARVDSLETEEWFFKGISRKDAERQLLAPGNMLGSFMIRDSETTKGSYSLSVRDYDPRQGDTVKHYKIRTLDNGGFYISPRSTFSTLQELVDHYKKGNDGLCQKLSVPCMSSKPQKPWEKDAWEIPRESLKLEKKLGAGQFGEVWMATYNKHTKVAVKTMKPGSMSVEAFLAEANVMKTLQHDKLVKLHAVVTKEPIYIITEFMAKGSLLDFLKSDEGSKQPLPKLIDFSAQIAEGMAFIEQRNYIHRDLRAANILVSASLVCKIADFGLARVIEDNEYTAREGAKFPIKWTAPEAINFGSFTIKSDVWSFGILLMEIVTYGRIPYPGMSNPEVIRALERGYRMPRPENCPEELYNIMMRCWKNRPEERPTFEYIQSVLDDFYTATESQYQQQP
Protocol: as §1, §2, §3

[10] = molecular target: T10, protein kinases (Homo sapiens, UniProt P10721); details: KIT, read-out: Test compound/solvent control (%)
T10 construct: purchased Discovery X company (USA), KINOMEscan screening platform
Protocol: as §1, §2, §3

[11] = molecular target: T11, protein kinases (Homo sapiens, UniProt P10721, L576P); details: KIT(L576P), read-out: Test compound/solvent control (%)
T11 construct: purchased Discovery X company (USA), KINOMEscan screening platform
Protocol: as §1, §2, §3

[12] = molecular target: T12, protein kinases (Homo sapiens, UniProt P12931); details: SRC, read-out: Test compound/solvent control (%)
T12 construct: purchased Discovery X company (USA), KINOMEscan screening platform
T12 sequence (P12931 whole entry): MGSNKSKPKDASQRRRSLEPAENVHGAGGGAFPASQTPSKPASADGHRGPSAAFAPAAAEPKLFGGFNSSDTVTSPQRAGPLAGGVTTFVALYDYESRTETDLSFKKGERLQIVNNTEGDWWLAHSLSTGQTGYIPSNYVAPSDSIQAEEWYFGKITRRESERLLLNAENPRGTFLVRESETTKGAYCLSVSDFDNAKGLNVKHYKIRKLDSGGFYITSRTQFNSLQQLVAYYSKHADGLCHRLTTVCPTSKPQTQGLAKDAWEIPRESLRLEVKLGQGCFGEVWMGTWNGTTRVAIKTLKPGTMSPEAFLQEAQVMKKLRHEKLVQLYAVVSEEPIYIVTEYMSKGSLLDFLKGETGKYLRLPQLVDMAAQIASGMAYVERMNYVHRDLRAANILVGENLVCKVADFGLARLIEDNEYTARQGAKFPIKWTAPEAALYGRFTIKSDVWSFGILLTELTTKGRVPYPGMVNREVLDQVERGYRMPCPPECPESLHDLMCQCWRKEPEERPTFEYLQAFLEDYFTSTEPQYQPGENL
Protocol: as §1, §2, §3

[13] = molecular target: T13, protein kinases (Homo sapiens, UniProt P36888, K663Q); details: FLT3(K663Q), read-out: Test compound/solvent control (%)
T13 construct: purchased Discovery X company (USA), KINOMEscan screening platform
T13 sequence (P36888 27-993 K663Q): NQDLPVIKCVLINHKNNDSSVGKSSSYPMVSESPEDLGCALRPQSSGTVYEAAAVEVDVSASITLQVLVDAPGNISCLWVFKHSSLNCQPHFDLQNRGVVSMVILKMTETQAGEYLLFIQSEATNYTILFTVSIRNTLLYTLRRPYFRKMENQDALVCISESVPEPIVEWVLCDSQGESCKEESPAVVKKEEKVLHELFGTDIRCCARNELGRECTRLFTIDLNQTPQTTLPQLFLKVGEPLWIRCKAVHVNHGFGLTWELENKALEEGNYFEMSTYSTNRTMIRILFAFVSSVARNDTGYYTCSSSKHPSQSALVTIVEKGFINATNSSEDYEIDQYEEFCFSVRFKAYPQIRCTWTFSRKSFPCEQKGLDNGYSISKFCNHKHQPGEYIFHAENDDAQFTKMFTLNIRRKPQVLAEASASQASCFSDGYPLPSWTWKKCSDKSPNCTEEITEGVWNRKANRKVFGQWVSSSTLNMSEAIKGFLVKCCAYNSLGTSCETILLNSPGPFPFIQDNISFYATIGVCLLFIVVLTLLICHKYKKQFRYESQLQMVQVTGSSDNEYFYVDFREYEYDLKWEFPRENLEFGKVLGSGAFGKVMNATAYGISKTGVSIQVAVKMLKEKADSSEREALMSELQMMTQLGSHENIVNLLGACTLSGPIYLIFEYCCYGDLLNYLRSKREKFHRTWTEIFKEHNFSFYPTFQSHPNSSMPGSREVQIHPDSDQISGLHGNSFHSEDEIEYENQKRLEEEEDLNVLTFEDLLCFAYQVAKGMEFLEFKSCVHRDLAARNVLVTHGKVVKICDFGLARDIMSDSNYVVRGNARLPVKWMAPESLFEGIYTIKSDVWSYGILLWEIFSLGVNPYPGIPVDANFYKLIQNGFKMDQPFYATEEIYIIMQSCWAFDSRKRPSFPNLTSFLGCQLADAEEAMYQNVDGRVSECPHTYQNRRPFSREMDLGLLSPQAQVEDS
Protocol: as §1, §2, §3

[14] = molecular target: T14, protein kinases (Homo sapiens, UniProt Q16620); details: TRKB (NTRK2), read-out: Test compound/solvent control (%)
T14 construct: purchased Discovery X company (USA), KINOMEscan screening platform
T14 sequence (Q16620 32-822): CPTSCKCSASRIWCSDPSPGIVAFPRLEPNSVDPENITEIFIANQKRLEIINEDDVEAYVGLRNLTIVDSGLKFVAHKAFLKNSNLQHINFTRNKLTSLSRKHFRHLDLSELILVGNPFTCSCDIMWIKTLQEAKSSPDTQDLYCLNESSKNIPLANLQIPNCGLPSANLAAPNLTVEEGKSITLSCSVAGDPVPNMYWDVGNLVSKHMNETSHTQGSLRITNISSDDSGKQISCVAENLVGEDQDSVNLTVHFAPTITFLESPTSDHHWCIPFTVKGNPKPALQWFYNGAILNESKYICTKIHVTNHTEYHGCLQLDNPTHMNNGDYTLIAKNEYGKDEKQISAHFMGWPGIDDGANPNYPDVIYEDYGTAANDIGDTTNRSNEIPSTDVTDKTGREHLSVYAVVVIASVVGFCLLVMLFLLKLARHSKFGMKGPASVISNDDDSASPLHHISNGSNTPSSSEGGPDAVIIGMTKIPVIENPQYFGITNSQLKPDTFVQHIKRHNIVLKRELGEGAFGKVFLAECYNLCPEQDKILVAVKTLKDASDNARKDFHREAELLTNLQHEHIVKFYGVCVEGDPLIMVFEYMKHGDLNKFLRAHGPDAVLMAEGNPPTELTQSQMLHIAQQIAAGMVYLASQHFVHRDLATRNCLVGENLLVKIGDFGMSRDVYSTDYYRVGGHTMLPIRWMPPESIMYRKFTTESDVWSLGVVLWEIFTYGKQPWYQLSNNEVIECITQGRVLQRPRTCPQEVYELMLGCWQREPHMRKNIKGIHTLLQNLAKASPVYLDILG
Protocol: as §1, §2, §3

## COCCOc1cc2nccc(Oc3ccc(NC(=O)Nc4cc(C(C)(C)C)n[nH]4)c(Cl)c3)c2cc1NC(C)=O [Compound 66, N-[4-{4-[3-(5-tert-butyl-2H-pyrazol-3-yl)-ureido]-3-chloro-phenoxy}-7-(2-methoxy-ethoxy)-quinolin-6-yl]-acetamide]
[1]; 1 nM
  remaining binding at 0.001 µM: 100%
[1]; 10 nM
  remaining binding at 0.01 µM: 22%
[1]; 1000 nM
  remaining binding at 1 µM: 0.65%
[2]; ABL1(Q252H)-phosphorylated
  remaining binding at 0.001 µM: 71%
  remaining binding at 0.01 µM: 12%
  remaining binding at 1 µM: 0.15%
[2]; ABL1(Q252H)-unphosphorylated
  remaining binding at 0.001 µM: 48%
  remaining binding at 0.01 µM: 7.8%
  remaining binding at 1 µM: 0%
[3]; 1 nM
  Test compound/solvent control (%): 100%
[3]; 10 nM
  Test compound/solvent control (%): 26%
[3]; 1000 nM
  Test compound/solvent control (%): 0%
[4]; 1 nM
  Test compound/solvent control (%): 83%
[4]; 10 nM
  Test compound/solvent control (%): 30%
[4]; 1000 nM
  Test compound/solvent control (%): 0.2%
[5]; 1 nM
  Test compound/solvent control (%): 83%
[5]; 10 nM
  Test compound/solvent control (%): 19%
[5]; 1000 nM
  Test compound/solvent control (%): 0.2%
[6]; 1 nM
  remaining binding at 0.001 µM: 78%
[6]; 10 nM
  remaining binding at 0.01 µM: 8.5%
[6]; 1000 nM
  remaining binding at 1 µM: 0%
[7]; 1 nM
  remaining binding at 0.001 µM: 88%
[7]; 10 nM
  remaining binding at 0.01 µM: 17%
[7]; 1000 nM
  remaining binding at 1 µM: 0%
[8]; 1 nM
  remaining binding at 0.001 µM: 100%
[8]; 10 nM
  remaining binding at 0.01 µM: 34%
[8]; 1000 nM
  remaining binding at 1 µM: 0%
[9]; 1 nM
  remaining binding at 0.001 µM: 60%
[9]; 10 nM
  remaining binding at 0.01 µM: 1.7%
[9]; 1000 nM
  remaining binding at 1 µM: 0%
[10]; 1 nM
  remaining binding at 0.001 µM: 90%
[10]; 10 nM
  remaining binding at 0.01 µM: 27%
[10]; 1000 nM
  remaining binding at 1 µM: 0%
[11]; 1 nM
  remaining binding at 0.001 µM: 95%
[11]; 10 nM
  remaining binding at 0.01 µM: 32%
[11]; 1000 nM
  remaining binding at 1 µM: 0%
[12]; 1 nM
  remaining binding at 0.001 µM: 36%
[12]; 10 nM
  remaining binding at 0.01 µM: 1.4%
[12]; 1000 nM
  remaining binding at 1 µM: 0.1%
[13]; 1 nM
  remaining binding at 0.001 µM: 89%
[13]; 10 nM
  remaining binding at 0.01 µM: 22%
[13]; 1000 nM
  remaining binding at 1 µM: 3.2%
[14]; 1 nM
  remaining binding at 0.001 µM: 65%
[14]; 10 nM
  remaining binding at 0.01 µM: 12%
[14]; 1000 nM
  remaining binding at 1 µM: 0.35%
